Laboratory results: patent US8822542B2, “Isoketal scavengers and mitigation of disorders involving oxidative injury” (Vanderbilt University, priority 2005, dated 2014)
pIC50: −log10 of the molar value. Entries after “also recorded” stand apart in the source; their conditions may differ.

Assays:
aged SAMP mice = conditions: mouse, in vivo; cited from earlier work
[1] = system: F2-IsoPs esterified in the kidney; assay: Galactosamine treated rats (hepatorenal syndrome model), F2-IsoPs esterified in the kidney; format: in vivo, rat; conditions: 1 g/L drinking water
From the text: Another antioxidant of the present invention is lipoic acid. […] Dihydrolipoic acid is a dithiol. As mentioned previously, thiols reduce the endoperoxide intermediates in the IsoP pathway in vivo to F2-IsoPs. Reducing the endoperoxides concomitantly therefore reduces the formation of endoperoxide rearrangement products, one of which is the IsoKs (FIG. 28). Therefore, mechanistically lipoic acid is an antioxidant to test in animal models of AD. It is also an antioxidant to test because it is available over the counter for human use.

proteasome = assay: Hydrolysis of fluorogenic substrate VKM-amc by proteasome containing cell lysates; format: biochemical; conditions: equimolar adduction of VKM-amc
ovalbumin (OVA) = ovalbumin (OVA) (Gallus gallus, UniProt P01012); assay: Protein cross-linking after incubation with ovalbumin; format: biochemical; conditions: 10 molar equivalents, about 4 hours
Chain of ovalbumin (OVA) (P01012 whole entry, species assumed): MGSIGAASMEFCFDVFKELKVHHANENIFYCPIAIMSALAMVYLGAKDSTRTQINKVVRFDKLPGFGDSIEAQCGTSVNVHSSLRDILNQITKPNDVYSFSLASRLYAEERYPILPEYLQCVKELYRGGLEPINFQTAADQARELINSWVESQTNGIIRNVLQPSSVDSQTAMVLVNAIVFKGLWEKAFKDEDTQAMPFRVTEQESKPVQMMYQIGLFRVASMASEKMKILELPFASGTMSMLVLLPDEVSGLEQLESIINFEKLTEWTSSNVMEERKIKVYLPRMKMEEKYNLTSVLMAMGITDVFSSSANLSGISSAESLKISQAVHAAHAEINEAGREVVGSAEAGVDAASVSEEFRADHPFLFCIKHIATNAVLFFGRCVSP
From the text: The above findings explained why repeated attempts in the past to detect free IsoKs during oxidation of biological systems in vitro, e.g. microsomes, and in animal models of oxidant injury in vivo were unsuccessful because they are rapidly sequestered as protein adducts. Therefore, the present inventors undertook to determine the identity of IsoK lysyl adducts as a basis for development of methodology to detect IsoK and NeuroK adducts in biological tissues in their adducted form. […] Reversible Schiff base adducts were also identified. Schiff base adducts are formed rapidly and then decline over time, whereas lactam adducts accumulate slowly over time. Lysyl protein adducts of IsoKs and NeuroKs are analyzed by LC/MS/MS following enzymatic digestion of proteins to individual amino acids. Enzymatic digestion of proteins is necessary because the adducts degrade during acid hydrolysis. However, this analysis is further complicated by the proclivity of IsoKs and NKs to induce protein crosslinking, which is resistant to hydrolysis. […] This is a dramatic example of the differential effects of IsoKs/NKs and HNE on protein adduction and cross-linking.

bovine serum albumin = bovine serum albumin (Bos taurus, UniProt P02769); assay: Disappearance of free IsoK and HNE during incubation with bovine serum albumin (rate of adduction); format: biochemical; conditions: after 80 minutes
Chain of bovine serum albumin (P02769 25-607): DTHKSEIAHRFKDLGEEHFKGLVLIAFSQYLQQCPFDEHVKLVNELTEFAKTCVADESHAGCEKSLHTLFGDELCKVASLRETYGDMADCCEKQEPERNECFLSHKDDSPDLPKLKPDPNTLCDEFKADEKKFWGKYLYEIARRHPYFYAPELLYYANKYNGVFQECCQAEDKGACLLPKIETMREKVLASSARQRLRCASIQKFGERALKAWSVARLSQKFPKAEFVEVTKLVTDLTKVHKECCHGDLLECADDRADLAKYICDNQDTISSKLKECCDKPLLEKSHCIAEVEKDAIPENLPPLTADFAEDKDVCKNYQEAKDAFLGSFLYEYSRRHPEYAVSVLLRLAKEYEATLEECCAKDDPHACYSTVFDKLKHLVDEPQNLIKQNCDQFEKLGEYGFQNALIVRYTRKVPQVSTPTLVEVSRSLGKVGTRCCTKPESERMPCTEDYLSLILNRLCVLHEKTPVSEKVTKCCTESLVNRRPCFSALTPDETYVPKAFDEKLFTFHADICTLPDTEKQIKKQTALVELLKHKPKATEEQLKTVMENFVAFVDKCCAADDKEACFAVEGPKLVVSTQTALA
Experimental: Oxidation of AA in vitro produces both F2-IsoPs and IsoKs in nearly equivalent amounts. However, comparison of the formation of F2-IsoPs and IsoKs in vivo is more complex, because IsoKs rapidly adduct to lysyl residues on proteins. […] In striking contrast, approximately 50% of the HNE still remained in free form after 80 minutes.

[2] = molecular target: human cardiac Na channel (hH1, or SCN5A) (Homo sapiens, UniProt Q14524); assay: Whole-cell Na current recording, wild-type hH1 expressed in HEK-293 cells; conditions: HEK-293; t-BHP 1 mM, Iso-K 10 μM, flecainide 1 μM
Chain of human cardiac Na channel (hH1, or SCN5A) (Q14524 whole entry): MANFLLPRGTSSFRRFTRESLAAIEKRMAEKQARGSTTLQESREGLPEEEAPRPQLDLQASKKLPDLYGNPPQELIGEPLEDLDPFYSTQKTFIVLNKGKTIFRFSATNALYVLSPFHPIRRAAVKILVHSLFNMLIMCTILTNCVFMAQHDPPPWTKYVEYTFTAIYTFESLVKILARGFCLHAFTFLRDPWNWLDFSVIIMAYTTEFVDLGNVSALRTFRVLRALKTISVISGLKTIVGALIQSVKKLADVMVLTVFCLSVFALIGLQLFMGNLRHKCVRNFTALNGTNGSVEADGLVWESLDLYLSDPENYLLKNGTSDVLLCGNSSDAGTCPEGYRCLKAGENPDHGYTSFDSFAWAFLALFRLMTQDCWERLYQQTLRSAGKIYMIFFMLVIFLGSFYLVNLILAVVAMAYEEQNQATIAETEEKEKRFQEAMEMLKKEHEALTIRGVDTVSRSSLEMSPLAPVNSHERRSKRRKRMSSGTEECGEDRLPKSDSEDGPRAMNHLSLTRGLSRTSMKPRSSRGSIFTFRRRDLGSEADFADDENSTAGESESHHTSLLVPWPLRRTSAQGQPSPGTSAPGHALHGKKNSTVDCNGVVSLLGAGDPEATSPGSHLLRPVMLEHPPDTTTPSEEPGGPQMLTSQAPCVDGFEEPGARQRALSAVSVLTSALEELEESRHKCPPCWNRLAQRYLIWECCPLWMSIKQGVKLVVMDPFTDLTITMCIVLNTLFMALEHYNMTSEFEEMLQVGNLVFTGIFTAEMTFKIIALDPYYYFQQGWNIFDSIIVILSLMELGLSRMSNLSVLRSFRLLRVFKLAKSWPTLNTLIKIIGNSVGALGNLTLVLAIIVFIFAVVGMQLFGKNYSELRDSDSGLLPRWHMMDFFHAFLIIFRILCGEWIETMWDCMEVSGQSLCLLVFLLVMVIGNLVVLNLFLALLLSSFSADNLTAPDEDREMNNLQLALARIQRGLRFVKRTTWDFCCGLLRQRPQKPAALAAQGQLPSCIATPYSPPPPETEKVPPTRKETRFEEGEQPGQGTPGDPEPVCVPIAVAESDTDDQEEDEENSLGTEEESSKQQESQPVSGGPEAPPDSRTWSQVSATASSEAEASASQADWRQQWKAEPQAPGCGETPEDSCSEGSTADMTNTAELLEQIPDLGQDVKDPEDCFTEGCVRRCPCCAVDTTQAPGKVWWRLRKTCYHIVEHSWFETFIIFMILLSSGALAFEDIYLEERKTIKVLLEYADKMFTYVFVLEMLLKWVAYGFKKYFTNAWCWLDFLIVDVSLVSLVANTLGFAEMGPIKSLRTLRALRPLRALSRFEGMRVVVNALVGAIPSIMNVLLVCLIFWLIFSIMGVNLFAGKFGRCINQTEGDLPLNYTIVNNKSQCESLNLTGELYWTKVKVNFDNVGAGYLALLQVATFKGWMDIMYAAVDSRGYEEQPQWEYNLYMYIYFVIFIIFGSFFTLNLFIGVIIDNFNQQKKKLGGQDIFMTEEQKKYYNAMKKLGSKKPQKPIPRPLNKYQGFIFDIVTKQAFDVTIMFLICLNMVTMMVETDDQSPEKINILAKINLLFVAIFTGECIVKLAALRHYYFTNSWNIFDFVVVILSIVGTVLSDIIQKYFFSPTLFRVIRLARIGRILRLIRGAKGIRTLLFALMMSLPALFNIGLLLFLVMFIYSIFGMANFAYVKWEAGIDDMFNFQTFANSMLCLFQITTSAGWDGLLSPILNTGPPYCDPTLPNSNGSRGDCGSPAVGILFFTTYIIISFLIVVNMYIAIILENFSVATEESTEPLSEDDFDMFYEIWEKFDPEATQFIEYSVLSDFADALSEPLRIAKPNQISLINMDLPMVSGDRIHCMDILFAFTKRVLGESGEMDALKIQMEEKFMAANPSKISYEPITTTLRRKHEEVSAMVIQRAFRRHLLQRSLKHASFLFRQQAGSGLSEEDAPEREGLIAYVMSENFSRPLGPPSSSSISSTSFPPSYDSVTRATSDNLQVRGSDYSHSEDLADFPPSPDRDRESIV

[3] = Second order rate of pyrrole formation with the model γ-ketoaldehyde 4-oxopentanal; format: biochemical
Experimental: The present inventors determined the approximate second order rate constants of different amines for pyrrole formation with […], a γ-ketoaldehyde.
These compounds are tested for the rate of pyrrole formation when incubated with the γ-ketoaldehyde, 4-oxopentanal. […] Ehrlich reagent may be used to detect levels of pyrroles.
All rates are shown relative to N-α-acetyl-lysine.

[4] = Oxidation of arachidonic acid in the presence of scavenger and 10 molar excess of lysine; format: biochemical
From the text: The amounts of each of these adducts to the amount of γ KA adduct formed were normalized. […] Because cardiac ion channels are embedded in cellular membranes, the ability to penetrate into membranes is critical.

HepG2 cell = assay: Cellular viability of HepG2 cells exposed to hydrogen peroxide; format: cell-based
[5] = Lipophilicity / penetration into nonpolar environments; format: physicochemical
[6] = SA in the drinking water of mice: concentrations and tolerability; format: in vivo, C57BL6 mice
Experimental: (§1) In a series of experiments, the present inventors have tested the effect of the γ KA scavenger salicylamine (SA) in mice subjected to ligation of the left anterior coronary artery resulting in a myocardial infarction. All experiments were done in blinded fashion regarding the treatment group (SA versus placebo (water)). Mice received drinking water containing either SA (1 g/l) or no drug for three days prior to coronary ligation and for 7 days afterwards.
SA was tested to determine whether it could be used in vivo. 1 g/L or 5 g/L salicylamine was added to the drinking water of C57BL6 mice for 5 days and then harvested plasma and liver from the animals. SA was measured by monitoring absorption at 259 nm after derivatization with 1,1′-thiocarbonyldiimidazole.

[7] = system: mice subjected to ligation of the left anterior coronary artery; assay: Myocardial infarction by coronary ligation in mice; format: in vivo, mouse
From the text: as §1
The present inventors examined the effect of SA treatment on Lys-lactam protein adduct formation. Mouse hearts were harvested 7 days after coronary ligation and the atria and the right ventricular free wall were removed. The remainder of each heart (LV free wall and septum) was then cut into two, roughly equal tissue specimens of ˜50 mg wet weight: The anterior-apical part contained the infarct and the peri-infarct border zone (MI+borderzone), and the posterior-basal part was unaffected (Remote). The tissue content of Lys-lactam protein adducts was quantified using our LC MS^2 based analytical technique.

[8] = system: transgenic humanized apoE4 mice (hApoE4); assay: Water radial arm maze in transgenic humanized apoE4 mice; format: in vivo, mouse; set-up: dose or concentration left out as unconfirmed; conditions: water containing SA, six months, tested at 12 months of age
From the text: Starting at six months of age, wild-type (C57) and transgenic humanized apoE4 mice (hApoE4) were given either standard water or water containing […] SA (+SA) as their only source of drinking water. At this time, animals were also switched from standard chow diets to either a sufficient amino acid based diet (suff) or an amino-acid based diet insufficient in choline, methionine, and folate, and enriched in homocysteine (HC). All animals were fed diets and drinking water for six months (to 12 months of age) prior to testing. The purpose of the HC diet was to attempt to exacerbate oxidative stress in these animals. Because breeding and behavioral testing is extremely time consuming, it was not possible to have sufficient animals for each group in a single cohort and still perform adequate behavioral testing. Therefore two separate cohorts of animals (A & B) were raised and tested about two month apart. […]
The water radial arm maze test requires a mouse to find a hidden platform placed in one of six maze arms. […] If the mouse enters an arm without the platform, an error is scored and the mouse is dragged by the tail back to the start arm and released. […] If a mouse swims in the central area for 12 sec without picking an arm, an error is also scored and the animal is dragged back to the start arm and released. […]

[9] = system: plasma concentrations of F2-IsoPs; assay: Porcine model of global ischemia/reperfusion (cardiac arrest and CPR), plasma F2-IsoPs; format: in vivo; conditions: 30 mg/kg intravenous, single dose during CPR
Experimental: The present inventors chose antioxidants to test in the models of AD that we have found effective in suppressing oxidative stress in other animal models of oxidative injury. One model of oxidative injury is the porcine model of global ischemia/reperfusion resulting from induction of cardiac arrest for 3 mins followed by cardiopulmonary resuscitation (CPR). Shown in FIG. 25 are results using this model. As shown, cardiac arrest followed by CPR induced a dramatic increase in plasma concentrations of F2-IsoPs. […] This study involved the administration of a single dose of Tempol. Shown in FIG. 26 is data taken from a report from Ortiz, et. al. in which they assessed the ability of chronic oral administration of TEMPOL (1 mM in the drinking water) to suppress the increase in F2-IsoPs induced by chronic IV infusion of angiotensin II. […] Tempol is one of the antioxidants of the present invention.

[10] = system: F2-IsoPs in renal vein plasma; conditions: 1 mM in the drinking water, chronic oral; cited from earlier work
20S proteasome = 20S proteasome (Homo sapiens, UniProt P28074); assay: Inhibition of 20S proteasome chymotrypsin-like activity (LLVY-amc hydrolysis); format: biochemical
From the text: Because nondegradable substrates often act as competitive inhibitors, the inventors tested whether E2-IsoK adducted proteins would inhibit proteasome chymotrypsin-like activity as measured by hydrolysis of a fluorogenic substrate, LLVY-amc.

[11] = system: plasma concentrations of F2-IsoPs; assay: Vitamin E supplementation, plasma F2-IsoPs in subjects with hypercholesterolemia; format: in vivo, human
Experimental: The use of antioxidants to suppress oxidative injury: An important aspect of antioxidant clinical trials that has not received sufficient attention until recently, is the scientific rational for the choice of a particular antioxidant to test, the dose to test, and the duration of treatment. […] This was a key finding because the literature is abound with studies in which have vitamin E was administered for less than 10 weeks to determine its effects on some pathologic process. […] This is an important finding because many studies of the effects of vitamin E have used doses of 400 I.U./d and observed no benefit.

progression of AD = conditions: 2000 I.U./d; cited from earlier work

Molecule: O=C(O)CCCC[C@@H]1CCSS1 (racemic) [lipoic acid]
- cognitive impairment (aged SAMP mice): effective in improving cognitive impairment
- increase in F2-IsoPs esterified in the kidney [1]: completely suppressed to below control levels

Molecule: CCCCCC(O)/C=C/C=O (stereo not shown) [HNE, 4-hydroxynonenal]
- hydrolysis of the adducted peptide by proteasome containing cell lysates (proteasome): no effect on hydrolysis
- cross-linking of ovalbumin (ovalbumin (OVA)): no cross-linking was observed
- remained in free form (bovine serum albumin): approximately 50%
- V1/2 voltage-dependence of inactivation (availability) [2]: −83.7±2.1 mV

Molecule: NCc1ccccc1O [SA, salicylamine]
- scavenging γ KAs [3]: very good at scavenging
- levels of F2-IsoP formed [4]: None of the three scavengers reduced
- selectivity for γ KA products over other lipid peroxidation products [4]: relatively selectively
- levels of Lys-lactam adduct formed ([4]; compared to vehicle): markedly reduced
- protection of cellular viability (HepG2 cell): best protection
- lipophilicity / penetration into nonpolar environments [5]: readily dissolve into ethyl acetate; also recorded: most lipophilic scavenger
- tolerability of the dosing regimen ([6]; 1 g/l in drinking water): well tolerated
- oral bioavailability ([6]; mouse, in vivo, po): orally bioavailable
- systolic function, fractional LV shortening (FS) by echocardiography ([7]; 1 g/l in drinking water, 7 days post MI): improved systolic function
- Lys-lactam protein adducts in infarct and peri-infarct borderzone ([7]; 7 days after coronary ligation): appears to prevent the adduct formation
- infarct size ([7]; hearts harvested 7 days after coronary ligation): significantly reduced infarct size
- survival after MI ([7]; p=0.1): trend towards increased survival
- memory performance (latency, Z-score) [8]: significantly improved the performance
- memory performance (latency, Z-score) ([8]; listed as salicylamine): improves memory

Molecule: CC1(C)CC(O)CC(C)(C)N1[O] [Tempol]
- increase in plasma levels of F2-IsoPs [9]: completely ablated this increase
- increase in levels of F2-IsoPs in renal vein plasma [10]: completely prevented the increase

Molecule: IsoK-Aβ1-40: Aβ1-40 adducted with E2-IsoK
- pIC50 (20S proteasome): 5.89

Molecule: vitamin E
- reduction of F2-IsoP levels ([11]; 800 I.U./d, 18 weeks): about 10%
- maximum suppression of plasma F2-IsoPs ([11]; 3200 I.U./d, 18 weeks): 49%
- effect on F2-IsoP levels ([11]; doses below 800 I.U./d, 18 weeks): no significant effect
- supplementation required to reach the plateau in maximum suppression of plasma F2-IsoPs ([11]; human, in vivo): sixteen
- effect to slow the progression of the disease (progression of AD): modest effect
